The text below walks through data of ChEMBL document CHEMBL1909046, “DrugMatrix in vitro pharmacology data”.

One data set concerns the target Histamine H2 receptor (Homo sapiens, UniProt P25021). The format is cell membranes, CHO-K1, Membrane. Note: in other assays of this panel Not Active means under 50% inhibition at 10 µM.
Data set [1] deals with Mitogen-activated protein kinase 3 (Homo sapiens, UniProt P27361). Kind of data set: DRUGMATRIX: Protein Serine/Threonine Kinase, ERK1 enzyme inhibition (substrate: Myelin Basic Protein). The arrangement: species or system Escherichia coli. As to conditions: Not Active = under 50% inhibition at 10 µM.
Chain of Mitogen-activated protein kinase 3 (P27361 whole entry): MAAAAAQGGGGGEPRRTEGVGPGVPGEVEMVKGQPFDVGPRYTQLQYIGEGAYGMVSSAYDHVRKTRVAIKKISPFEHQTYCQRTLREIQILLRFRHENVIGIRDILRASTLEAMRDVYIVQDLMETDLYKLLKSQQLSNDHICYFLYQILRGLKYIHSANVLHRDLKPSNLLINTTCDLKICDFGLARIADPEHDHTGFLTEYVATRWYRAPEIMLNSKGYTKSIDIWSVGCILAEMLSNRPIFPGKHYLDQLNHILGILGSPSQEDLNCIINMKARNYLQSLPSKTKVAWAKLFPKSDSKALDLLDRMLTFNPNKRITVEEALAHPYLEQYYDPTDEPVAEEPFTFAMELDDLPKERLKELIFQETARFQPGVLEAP
The target of the next data set is Cytochrome P450 3A4 (Homo sapiens, UniProt P08684). To be noted: bti-tn-5b1-4. Note: in other assays of this panel Not Active means under 50% inhibition at 10 µM.
Chain of Cytochrome P450 3A4 (P08684 whole entry): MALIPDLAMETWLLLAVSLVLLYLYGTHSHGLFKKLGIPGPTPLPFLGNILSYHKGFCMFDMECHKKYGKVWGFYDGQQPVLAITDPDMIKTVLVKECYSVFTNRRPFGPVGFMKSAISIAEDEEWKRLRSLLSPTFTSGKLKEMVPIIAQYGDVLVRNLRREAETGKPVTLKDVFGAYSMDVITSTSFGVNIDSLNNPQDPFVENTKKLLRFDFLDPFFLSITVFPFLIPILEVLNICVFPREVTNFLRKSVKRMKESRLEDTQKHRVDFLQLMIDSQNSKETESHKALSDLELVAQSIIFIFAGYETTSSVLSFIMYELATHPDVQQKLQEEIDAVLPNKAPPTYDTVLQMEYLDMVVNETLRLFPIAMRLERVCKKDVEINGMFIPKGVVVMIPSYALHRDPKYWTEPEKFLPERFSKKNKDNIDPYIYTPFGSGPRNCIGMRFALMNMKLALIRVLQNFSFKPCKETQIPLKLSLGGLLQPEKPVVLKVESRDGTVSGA
The target in data set [2] is T1, Polyunsaturated fatty acid lipoxygenase ALOX15 (Oryctolagus cuniculus, UniProt P12530).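 Note: inhibition of 15-lipoxygenase enzyme activity measured with linoleic acid as the substrate; in other assays of this panel Not Active means under 50% inhibition at 10 µM.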
T1 sequence (P12530 whole entry): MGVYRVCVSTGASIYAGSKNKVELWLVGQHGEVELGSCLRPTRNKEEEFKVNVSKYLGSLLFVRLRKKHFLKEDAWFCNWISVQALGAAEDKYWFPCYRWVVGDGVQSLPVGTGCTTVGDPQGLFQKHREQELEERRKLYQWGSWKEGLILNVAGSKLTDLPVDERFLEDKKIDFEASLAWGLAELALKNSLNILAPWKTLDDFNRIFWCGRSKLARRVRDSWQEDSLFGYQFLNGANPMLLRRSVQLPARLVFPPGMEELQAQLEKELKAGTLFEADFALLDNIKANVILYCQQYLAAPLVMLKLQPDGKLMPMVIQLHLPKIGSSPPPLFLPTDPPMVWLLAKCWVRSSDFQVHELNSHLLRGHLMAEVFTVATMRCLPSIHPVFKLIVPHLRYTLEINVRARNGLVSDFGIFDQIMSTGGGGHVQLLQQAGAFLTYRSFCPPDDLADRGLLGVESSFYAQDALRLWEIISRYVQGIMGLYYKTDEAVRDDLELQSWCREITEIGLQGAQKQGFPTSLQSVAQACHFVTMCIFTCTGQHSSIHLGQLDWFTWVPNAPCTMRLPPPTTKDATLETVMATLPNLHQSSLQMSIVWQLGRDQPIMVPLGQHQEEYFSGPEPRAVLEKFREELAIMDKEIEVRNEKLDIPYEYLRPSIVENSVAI
Kind of data set: biochemical. The format is tissue-based, Reticulocytes. To be noted: reticulocytes.

The target of a further data set is Vasopressin V1a receptor (Homo sapiens, UniProt P37288). It is filed as cell membranes, Membrane. As to conditions: hek293. Note: in other assays of this panel Not Active means under 50% inhibition at 10 µM.
Chain of Vasopressin V1a receptor (P37288 whole entry): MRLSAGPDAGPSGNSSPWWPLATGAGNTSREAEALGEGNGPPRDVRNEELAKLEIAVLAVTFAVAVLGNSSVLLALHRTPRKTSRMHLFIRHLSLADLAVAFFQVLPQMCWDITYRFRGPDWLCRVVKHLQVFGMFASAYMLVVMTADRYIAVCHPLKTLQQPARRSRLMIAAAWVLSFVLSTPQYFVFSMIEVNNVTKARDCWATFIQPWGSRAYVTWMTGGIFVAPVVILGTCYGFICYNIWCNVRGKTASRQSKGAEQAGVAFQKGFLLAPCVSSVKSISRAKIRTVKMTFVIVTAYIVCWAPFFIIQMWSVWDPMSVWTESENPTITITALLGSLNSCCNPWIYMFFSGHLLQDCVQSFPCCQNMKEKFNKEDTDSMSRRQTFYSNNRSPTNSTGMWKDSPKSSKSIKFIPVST
The target in data set [3] is T2, Angiotensin-converting enzyme (Oryctolagus cuniculus, UniProt P12822).
T2 sequence (P12822 whole entry): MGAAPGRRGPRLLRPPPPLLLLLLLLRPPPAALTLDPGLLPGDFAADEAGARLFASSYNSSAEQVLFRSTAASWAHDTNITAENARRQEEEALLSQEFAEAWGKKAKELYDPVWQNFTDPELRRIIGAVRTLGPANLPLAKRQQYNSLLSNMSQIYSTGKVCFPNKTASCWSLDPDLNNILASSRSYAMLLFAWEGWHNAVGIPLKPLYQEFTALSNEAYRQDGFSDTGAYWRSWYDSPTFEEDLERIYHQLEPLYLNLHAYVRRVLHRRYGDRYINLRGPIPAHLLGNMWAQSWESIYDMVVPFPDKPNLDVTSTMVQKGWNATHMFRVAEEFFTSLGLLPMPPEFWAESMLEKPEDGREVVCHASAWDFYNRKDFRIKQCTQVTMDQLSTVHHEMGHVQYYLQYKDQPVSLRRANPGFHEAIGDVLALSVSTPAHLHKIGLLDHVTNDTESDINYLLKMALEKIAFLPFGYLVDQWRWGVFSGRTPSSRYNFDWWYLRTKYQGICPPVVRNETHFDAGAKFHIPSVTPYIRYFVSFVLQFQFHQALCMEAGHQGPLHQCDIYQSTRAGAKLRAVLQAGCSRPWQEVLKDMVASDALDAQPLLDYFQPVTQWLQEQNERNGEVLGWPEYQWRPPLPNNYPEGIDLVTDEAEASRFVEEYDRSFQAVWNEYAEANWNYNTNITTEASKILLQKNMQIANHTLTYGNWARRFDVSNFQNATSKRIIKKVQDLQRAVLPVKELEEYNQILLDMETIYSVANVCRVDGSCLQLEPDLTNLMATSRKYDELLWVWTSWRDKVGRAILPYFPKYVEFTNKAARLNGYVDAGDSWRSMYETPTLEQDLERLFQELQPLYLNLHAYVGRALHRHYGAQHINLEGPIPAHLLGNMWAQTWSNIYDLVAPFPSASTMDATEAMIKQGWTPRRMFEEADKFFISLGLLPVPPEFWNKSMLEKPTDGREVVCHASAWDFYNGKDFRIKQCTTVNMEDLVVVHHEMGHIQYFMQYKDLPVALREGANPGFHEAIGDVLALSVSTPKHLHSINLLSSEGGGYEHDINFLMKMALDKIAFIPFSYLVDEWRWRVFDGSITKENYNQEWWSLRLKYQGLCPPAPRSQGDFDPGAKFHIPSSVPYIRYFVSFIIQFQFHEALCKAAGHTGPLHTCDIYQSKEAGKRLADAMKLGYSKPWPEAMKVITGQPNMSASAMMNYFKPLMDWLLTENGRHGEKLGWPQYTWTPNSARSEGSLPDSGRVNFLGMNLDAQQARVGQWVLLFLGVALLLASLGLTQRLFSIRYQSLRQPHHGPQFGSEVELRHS
It is filed as tissue-based, Lung.

For data set [4], the target named is 5-hydroxytryptamine receptor 6 (Homo sapiens, UniProt P50406). It is filed as cell membranes, HeLa, Membrane. To be noted: hela. Note: in other assays of this panel Not Active means under 50% inhibition at 10 µM.
Chain of 5-hydroxytryptamine receptor 6 (P50406 whole entry): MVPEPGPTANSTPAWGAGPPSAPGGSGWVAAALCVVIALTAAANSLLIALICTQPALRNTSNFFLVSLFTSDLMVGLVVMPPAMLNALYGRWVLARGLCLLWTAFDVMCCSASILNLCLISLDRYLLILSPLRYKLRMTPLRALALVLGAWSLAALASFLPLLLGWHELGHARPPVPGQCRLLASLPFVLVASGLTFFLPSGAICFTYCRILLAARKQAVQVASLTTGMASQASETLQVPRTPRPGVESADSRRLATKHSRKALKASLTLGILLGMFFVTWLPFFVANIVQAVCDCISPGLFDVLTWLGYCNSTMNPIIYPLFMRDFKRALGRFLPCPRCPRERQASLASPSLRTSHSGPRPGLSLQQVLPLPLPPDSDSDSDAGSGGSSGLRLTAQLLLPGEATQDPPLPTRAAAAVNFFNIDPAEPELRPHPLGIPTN

Chain of Histamine H2 receptor (P25021 whole entry): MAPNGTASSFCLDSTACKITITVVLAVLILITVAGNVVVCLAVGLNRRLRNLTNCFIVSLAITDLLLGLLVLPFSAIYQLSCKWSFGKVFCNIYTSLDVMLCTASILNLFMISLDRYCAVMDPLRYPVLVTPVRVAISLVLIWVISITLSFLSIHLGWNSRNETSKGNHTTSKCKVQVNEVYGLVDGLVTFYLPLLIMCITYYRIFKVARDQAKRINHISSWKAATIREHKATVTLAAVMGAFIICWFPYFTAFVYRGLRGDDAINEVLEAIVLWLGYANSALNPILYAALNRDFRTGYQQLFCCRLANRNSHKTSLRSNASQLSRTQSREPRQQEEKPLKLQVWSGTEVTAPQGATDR

The term IC50 denotes the concentration needed to halve the response being measured. Broadly, the Ki is the equilibrium dissociation constant of an inhibitor or competing ligand from its target. Regarding `CC1CCC(NC(=O)N(CCCl)N=O)CC1` (stereo unspecified) [SEMUSTINE], the half-inhibitory concentration (IC50) result (against Histamine H2 receptor (cho-k1); in data set [1]; at Cytochrome P450 3A4; in data set [2]; on Vasopressin V1a receptor; in data set [3]) was “Not Active” throughout. For the same compound, in data set [4], the IC50 entry is “Not Active”. For the same compound, the Ki result at Cytochrome P450 3A4 is “Not Active”.

On to `O=C1C[C@@H]2OCC=C3CN4CC[C@]56c7ccccc7N1[C@H]5[C@H]2[C@H]3C[C@H]46` [STRYCHNINE], for which the IC50 entry (against Histamine H2 receptor (cho-k1); in data set [1]; on Cytochrome P450 3A4; in data set [2]; at Vasopressin V1a receptor; in data set [3]) was “Not Active” each time. The IC50 result in data set [4] was “Not Active”. Also, the Ki result at Cytochrome P450 3A4 was “Not Active”.

`C[N+](C)(C)CCOC(=O)CCC(=O)OCC[N+](C)(C)C.[Cl-].[Cl-]` [SUCCINYLCHOLINE CHLORIDE]: the IC50 result (at Histamine H2 receptor (cho-k1); in data set [1]; against Cytochrome P450 3A4; in data set [2]; at Vasopressin V1a receptor; in data set [3]) was “Not Active” each time. The IC50 entry in data set [4] is recorded as “Not Active”. The Ki result on Cytochrome P450 3A4 was “Not Active”.

Take `Nc1ccc(S(=O)(=O)NC(=O)c2ccccc2)cc1` [SULFABENZAMIDE]: the IC50 result (against Histamine H2 receptor (cho-k1); in data set [1]; on Cytochrome P450 3A4; in data set [2]; on Vasopressin V1a receptor; in data set [3]) was “Not Active” throughout. The IC50 result in data set [4] is on record as “Not Active”. For the same compound, the Ki entry at Cytochrome P450 3A4 is listed as “Not Active”.

For `CCCCCCCCNC(C)C(O)c1ccc(SC(C)C)cc1` (stereo unspecified) [SULOCTIDIL], the IC50 on Histamine H2 receptor (read-out: IC50) is 108 nM; in data set [1], “Not Active”; on Cytochrome P450 3A4, “Not Active”; in data set [2], “Not Active”; against Vasopressin V1a receptor it was “Not Active”; in data set [3], “Not Active”. Further, in data set [4], the IC50 result is on record as “Not Active”. The Ki on Histamine H2 receptor (read-out: Ki) was 88.5 nM; at Cytochrome P450 3A4 it was “Not Active”.

Turning to `O=c1[nH]c(=O)n(C2CCCO2)cc1F` (stereo unspecified) [TEGAFUR], the IC50 result (on Histamine H2 receptor (cho-k1); in data set [1]; on Cytochrome P450 3A4; in data set [2]; against Vasopressin V1a receptor; in data set [3]) was “Not Active” in each case. The IC50 entry in data set [4] is listed as “Not Active”. For the same compound, the Ki result at Cytochrome P450 3A4 was “Not Active”.

Consider `CC(=N)S` [THIOACETAMIDE], for which the IC50 result (against Histamine H2 receptor (cho-k1); in data set [1]; at Cytochrome P450 3A4; in data set [2]; on Vasopressin V1a receptor; in data set [3]) was “Not Active” each time. In addition, in data set [4], the IC50 result was “Not Active”. In addition, at Cytochrome P450 3A4, the Ki result is recorded as “Not Active”.

Consider `Cc1ccc(C(=O)c2ccc(CC(=O)O)n2C)cc1` [TOLMETIN], for which the half-maximal inhibitory concentration (IC50) result (at Histamine H2 receptor (cho-k1); in data set [1]; against Cytochrome P450 3A4; in data set [2]; at Vasopressin V1a receptor; in data set [3]) was “Not Active” each time. Further, in data set [4], the IC50 entry is listed as “Not Active”. Moreover, at Cytochrome P450 3A4, the inhibition constant Ki result is recorded as “Not Active”.

Take `CC(=O)OCC(COC(C)=O)OC(C)=O` [TRIACETIN]: the IC50 result (against Histamine H2 receptor (cho-k1); in data set [1]; against Cytochrome P450 3A4; in data set [2]; against Vasopressin V1a receptor; in data set [3]) was “Not Active” each time. The IC50 entry in data set [4] was “Not Active”. On Cytochrome P450 3A4, the Ki entry was “Not Active”.

For TRANSPLATIN, the half-maximal inhibitory concentration (IC50) entry (against Histamine H2 receptor (cho-k1); in data set [1]; against Cytochrome P450 3A4; in data set [2]; on Vasopressin V1a receptor; in data set [3]) was “Not Active” each time. Moreover, the half-inhibitory concentration (IC50) result in data set [4] was “Not Active”. Also, the Ki entry (on Histamine H2 receptor (cho-k1); in data set [1]; on Cytochrome P450 3A4; in data set [2]; on Vasopressin V1a receptor; in data set [3]) was “Not Active” each time. In addition, the Ki result in data set [4] is recorded as “Not Active”.

On to ZIRCONIUM(IV) CHLORIDE, for which the IC50 entry (on Histamine H2 receptor (cho-k1); in data set [1]; at Cytochrome P450 3A4; in data set [2]; at Vasopressin V1a receptor; in data set [3]) was “Not Active” in each case. Moreover, the 50% inhibitory concentration (IC50) result in data set [4] is “Not Active”. Besides, the Ki result (on Histamine H2 receptor (cho-k1); in data set [1]; on Cytochrome P450 3A4; in data set [2]; on Vasopressin V1a receptor; in data set [3]) was “Not Active” in each case. Besides, the Ki result in data set [4] is “Not Active”.
